What was measured:
[1] = target: adenosine receptor known as A2; test: Guinea-pig Aortic Constriction Test; assay type: biochemical; conditions: antagonism of adenosine relaxation of phenylephrine-constricted guinea-pig aortic ring
From the text: (b) Guinea-pig Aortic Constriction Test
This test has been described by Collis et al. (British J. Pharmacology, 1989, 97, 1274-1278) and involves the assessment of the ability of a test compound to antagonise the attenuatory effect of adenosine on phenylephrine induced constriction of a guinea-pig aortic ring preparation, an effect mediated via the adenosine receptor known as A2.
The aortic ring preparation is obtained as follows:- Sections (3-5 mm) of guinea pig thoracic aorta (from Dunkin Hartley strain, 250-400 g males) are mounted in organ baths containing oxygenated Krebs solution (95% O2 : 5% CO2) at 37° C. [The nucleoside transport inhibitor, dipyridamole (10 μM) is present in the Krebs solution]. The isometric tension development is recorded and the tissue placed under a resting tension of 1 g and allowed to equilibrate for 1 hour. […] Adenosine is next added cumulatively (10^-7 M to 10^-3 M) and the evoked relaxation is measured. […]
Test compounds are assessed by plotting the percentage relaxation observed against the logarithm of the adenosine concentration, competitive adenosine antagonism producing a parallel shift in the standard adenosine concentration/relaxation (dose response) curve. […] The pA2 value, which is an estimate of the concentration of antagonist to give a dose ratio of 2, may also be calculated using a standard computation technique.

[2] = tested on: vasodilation response during twitch contraction of skeletal muscle; test: Anaesthetised cat exercise hyperaemia test; assay type: in vivo; conditions: 10 mg.kg^-1
Description: f) Anaesthetised cat exercise hyperaemia test
This test involves assessment of the effect of a test compound to antagonise the vasodilation response which occurs during twitch contraction of skeletal muscle. The vasodilation is mediated partly by the release of endogenous adenosine from the contracting skeletal muscle.
Cats (2.4-3.6 kg) are anaesthetised with sodium pentobarbitone (50 mg.kg^-1 ip). The following blood vessels are catheterized: left jugular vein (for infusion of anaesthetic, at approximately […] as a 6 mg.ml^-1 solution in isotonic saline), right external jugular vein (for administration of drugs and test compounds), right common carotid artery (for measurement of systemic arterial blood pressure and pulse rate) and right brachial artery (for withdrawal of blood).
Blood flow to the left hind limb is measured with an electromagnetic flow probe around the left external iliac artery. The whole of the left hind limb is made to contract at 3 Hz for 20 minutes duration by stimulating the sciatic and femoral nerves. Active tension produced by the extensor digitorum longus and peroneous longus muscles is measured isometrically with a force transducer. Exercise is repeated twice within the same animal, in either the absence or presence of the test compound. Test compounds are assessed for their ability to reduce the vasodilatation during skeletal muscle contraction.

[3] = target: T1, adenosine receptor known as A1 (Cavia porcellus, UniProt P47745); test: Guinea-pig Atrial Bradycardic Test; assay type: biochemical; conditions: antagonism of 2-chloroadenosine bradycardia in beating guinea-pig atrial pair; read-out: pA2 (converted)
T1 construct: Atrial pairs are obtained from guinea-pigs (Dunkin Hartley strain); from tissue; host or cells: guinea-pig spontaneously beating atrial pairs (Dunkin Hartley)
T1 sequence (P47745 1-326): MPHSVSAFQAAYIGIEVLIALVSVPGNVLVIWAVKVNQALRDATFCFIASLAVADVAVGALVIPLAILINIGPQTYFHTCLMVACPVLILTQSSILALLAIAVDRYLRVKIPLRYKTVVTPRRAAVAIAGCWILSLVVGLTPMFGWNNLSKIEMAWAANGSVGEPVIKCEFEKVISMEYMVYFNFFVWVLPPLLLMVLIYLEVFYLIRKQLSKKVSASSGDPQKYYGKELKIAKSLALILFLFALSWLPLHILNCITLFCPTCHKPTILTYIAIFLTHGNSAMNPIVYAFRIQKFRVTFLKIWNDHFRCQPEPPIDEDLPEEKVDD
Description: (c) Guinea-pig Atrial Bradycardic Test
The atrial pair preparation may be obtained as follows: Atrial pairs are obtained from guinea-pigs (Dunkin Hartley strain, 250-400 g males) and mounted in organ baths containing oxygenated Krebs buffer solution (95% O2; 5% CO2) at 37° C. The spontaneously beating atria are then placed under a resting tension of 1 g and allowed to equilibrate for 50 minutes with continuous overflow. Overflow is then stopped and adenosine deaminase (1 Unit/ml) added to prevent the accumulation of endogenously produced adenosine. After equilibration for 15 minutes, a cumulative dose response curve to the adenosine mimetic, 2-chloroadenosine(10^-8 M to 10^-4 M) is administered to produce a maximal slowing of atrial rate. After washout during 30 minutes, adenosine deaminase is readministered to the bath which is allowed to equilibrate for 15 minutes. A 10^-5 M solution of the test compound in DMSO is then added to the bath which is left to incubate for 30 minutes. Any effect on the beating rate due to the test compound is noted before the dose response curve to 2-chloroadenosine is repeated. Compounds which are adenosine antagonists attenuate the 2-chloroadenosine response.
Test compounds are assessed by comparing dose response curves to 2-chloroadenosine alone with those obtained in the presence of the compound. […]

A2 Adenosine receptor = target: T2, A2 Adenosine receptor (Rattus norvegicus, UniProt P30543); test: A2 Adenosine receptor affinity test ([3H]-NECA displacement, PC12 membranes); assay type: binding; conditions: rat PC12 cell membranes, 30° C., 90 minutes
T2 construct: membrane preparations derived from the rat phaeochromocytoma cell line PC 12; host or cells: PC 12 (rat phaeochromocytoma) membranes
Description: The separated cells are then suspended in hypotonic solution (distilled water), allowed to stand on ice for 30 minutes and are then carefully homogenized using a standard high-speed homogeniser with periodic ice-cooling to obtain a fine suspension. […] The mixture is then incubated at 37° C. After 20 minutes, the reaction is terminated by dilution with ice-cold buffer and transfer onto ice. The material obtained containing the cell membranes is recovered by centrifugation and washed by resuspension in buffer and recentrifugation. The pellet produced is then resuspended in ice-cold buffer using a hand-driven homogenizer. The resultant membrane suspension is frozen and stored under liquid nitrogen until required.
After incubation, the samples are rapidly filtered over glass-fibre mats and the filter mats are washed to remove non-receptor-bound radioligand. Receptor-bound radioligand entrapped on the filter mats is then determined by liquid scintillation counting. Filtration and washing are carried out using a conventional vacuum filtration cell harvester. The specific binding (defined as the difference between the total binding and the non-specific binding) in the presence of the particular test compound is determined and compared with the control value.

T2 sequence (P30543 whole entry): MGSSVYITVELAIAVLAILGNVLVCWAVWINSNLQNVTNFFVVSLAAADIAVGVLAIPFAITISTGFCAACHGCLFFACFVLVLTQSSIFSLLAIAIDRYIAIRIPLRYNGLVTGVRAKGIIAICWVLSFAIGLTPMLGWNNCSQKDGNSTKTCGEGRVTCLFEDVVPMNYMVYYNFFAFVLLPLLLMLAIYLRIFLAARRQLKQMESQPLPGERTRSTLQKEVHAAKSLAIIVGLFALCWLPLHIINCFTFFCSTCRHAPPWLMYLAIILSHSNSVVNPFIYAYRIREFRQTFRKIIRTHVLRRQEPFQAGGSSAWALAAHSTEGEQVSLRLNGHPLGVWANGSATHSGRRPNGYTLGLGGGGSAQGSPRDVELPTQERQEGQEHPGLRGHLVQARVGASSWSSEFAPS

Row | SMILES | pA2 [1] | inhibition of vasodilatation during skeletal muscle contraction [2] | Kb [3] [nM] | IC50 (A2 Adenosine receptor) [nM]
1 | Cn1c(=O)c2[nH]cnc2n(C)c1=O [1,3-dimethylxanthine] | about 5 | significant inhibition |  | 
2 | Nc1nc(NCCc2ccc(Oc3nc(N)n4nc(-c5ccco5)nc4n3)cc2)nc2nc(-c3ccco3)nn12 [Example 1, 7-amino-5-[4-(2-[7-amino-2-(2-furyl)-[1,2,4]triazolo[1,5-a][1,3,5]triazin-5-ylamino]ethyl)phenoxy]-2-(2-furyl)[1,2,4]triazolo[1,5-a][1,3,5]triazine] |  |  | 1000 | ~0.794

Source: US5246932A, “Heterocyclic compounds” (Imperial Chemical Industries PLC, priority 1991, dated 1993)
